# Test results as given in patent US20220096515A1, “Methods and Formulations for Preventing Neurological or Psychiatric Disorders” (Huntington Medical Research Institutes, priority 2020, published 2022).
# Tests used:
# Type in all cases: in vivo, mouse
# wildtype CD1 mice = test: Increasing dose regimen of NAD+ in wildtype CD1 mice, H&E of MGE; settings: i.p.
# Method: Histology, immunohistochemistry, and microscopic analysis: Paraffin immunohistochemistry (IHC) was performed on embryonic brains only while frozen section IHC was used on both embryonic and adult brains. Briefly, for paraffin IHC-E18 brains were fixed in zinc fixative (BD Biosciences PharMingen) for 24 h and processed for paraffin histology. Histological stainings with hematoxylin (Vector Laboratories) and eosin (Sigma) were performed on 8 μm coronal sections. Lectin histochemistry (with biotinylated isolectin B4, 1:50, Sigma) as well as IHC was performed on 20 μm sections. Primary antibodies used for IHC were as follows: anti-PHH3 (1:200, Millipore) and anti-NKX2.1, (1:50; Sigma) followed by secondary detection with AlexaFluor conjugates (Invitrogen). DAPI (Vector Laboratories) was used to label nuclei. For frozen section IHC, E18 and P90 brains were removed, fixed in 4% PFA for 24 hours, cryo-protected in sucrose gradient, embedded into OCT medium for frozen blocks; sectioned at 40 μm on a cryostat and immunostained with anti-GABA (1:80, Sigma) and anti -PROX1 (1:80, Millipore) antibodies. Twenty sections from each brain were used for IHC and histology experiments. Uniform penetration of antibodies or stains throughout the section was ascertained and quality of the staining in each digital section was examined. […]
# [1] = test system: Gabrb3^ECKO endothelial cells; test: GABA immunostaining and cluster formation of endothelial cells after prenatal treatment
# Method: (§1) Primary culture of endothelial cells and endothelial cell staining: Embryonic brains were dissected under a stereo-microscope, after the NAD^+ treatment paradigm and the telencephalon was removed. Pial membranes were peeled off. Telencephalon without pial membranes from the periventricular region was pooled. Purity of endothelial cell cultures was established with endothelial cell markers and determined to be one hundred percent. Isolation and culture of endothelial cells were performed according to published methodology. Periventricular endothelial cells were prepared from CD1 (wild type), saline-treated Gabrb3^fl/fl, saline-treated Gabrb3^ECKO, and NAD^+-treated Gabrb3^ECKO embryos. Endothelial cells were labeled with anti-biotinylated isolectinB4 (1:100, Sigma), anti-GABA (1:400, Sigma), anti-DAXX (1:100, Santa Cruz Biotechnology) and anti-P2X4 (1:100, Abclonal) followed by secondary detection with AlexaFluor conjugates (Invitrogen). DAPI (Invitrogen) was used to label nuclei. Images were taken on an FSX100 microscope (Olympus). 1 million cells were examined for each immunohistochemistry condition.
# Endothelial cell derived GABA plays dual roles in the embryonic forebrain. […]
# Daxx = Daxx mRNA and protein levels in endothelial cells after prenatal treatment
# Method: as §1
# Quantitative real-time PCR: RT was performed by using iScript Reverse Transcription Supermix kit (Bio-Rad). […] The relative gene expression and subsequent fold changes among different samples were determined according to published methodology. […]
# Gabrb3^ECKO mice [2] = test: Y maze spontaneous alternation test; settings: vs saline-treated Gabrb3^ECKO mice
# Method: (§2) Behavioral Experiments: Mice were housed in our animal facility with a 12-hour light cycle with ad libitum access to food and water. Offspring stayed with their mothers until weaning at PND 21 after which males and females were separated. Before all behavioral testing, mice were acclimated to the testing room for 1 hour. Behavioral assays were performed according to established protocols referenced here: self-grooming, light-dark box, tail suspension test, Y-maze, open field locomotion activity, three chamber social interaction test and nest building with nestlets and with shredded paper. Both males and females were used for all behavioral assays. Experimenters scoring behaviors were blinded to the genotypes and treatment. Sample sizes for each assay are noted in figure legends.
# (§3) Anxiety was next assessed with the classic light-dark transition test which triggers a struggle between the desires to explore a novel environment versus natural aversion of a brightly illuminated open space. […] The Y maze spontaneous alternation test was used to evaluate for spatial learning and memory in the three groups of mice. After introduction to the center of the maze, the mice were given free access to all three arms. […] The total number of arm entries and the sequence of entries are recorded in order to calculate the percentage of alternation. […]
# Gabrb3^ECKO mice [3] = test: Tail suspension test; settings: vs saline-treated Gabrb3^ECKO mice
# Method: as §2, §3
# [4] = Litter size and pup growth after prenatal treatment; settings: prenatal NAD^+ treatment
compound,measurement,setting,value
NC(=O)c1ccc[n+]([C@@H]2O[C@H](COP(=O)([O-])OP(=O)(O)OC[C@H]3O[C@@H](n4cnc5c(N)ncnc54)[C@H](O)[C@@H]3O)[C@@H](O)[C@H]2O)c1 [NAD^+],cell cluster in MGE (H&E),"wildtype CD1 mice; 10 mg, 20 mg and 40 mg per mouse",a similar cell cluster in the MGE
same,lowest effective dose,wildtype CD1 mice,10 mg per mouse
same,GABA expression (immunohistochemistry),[1],GABA expression was also restored
same,endothelial cell cluster formation,[1],significantly improved cluster formation
same,Daxx mRNA and DAXX protein levels,Daxx,normalize DAXX levels
same,percentage alternations,Gabrb3^ECKO mice [2],significant increase in percentage alternations
same,immobility times,Gabrb3^ECKO mice [3],significantly lower immobility times
same,growth of pups,[4],grew normally to adulthood
same,litter size,[4],did not have any effect on litter size
